Results: ChEMBL document CHEMBL2016493, “Design, synthesis, synergistic antimicrobial activity and cytotoxicity of 4-aryl substituted 3,4-dihydropyrimidinones of curcumin” (Bioorg Med Chem Lett, 2012)
Active and inactive are the calls of the source. The calls are words filed in the database; no cut-off is given here.

Assays:
Pseudomonas aeruginosa [1] = test: Antibacterial activity against Pseudomonas aeruginosa ATCC 15499 at 40 uM/ml after 24 hrs by kirby-bauer method; assay type: functional; settings: for zone of inhibition at 40 µM: ATCC 15499, 24 h, read-out: IZ
Pseudomonas aeruginosa [2] = test: Antibacterial activity against Pseudomonas aeruginosa ATCC 15499 at 80 uM/ml after 24 hrs by kirby-bauer method; assay type: functional; settings: for zone of inhibition at 80 µM: ATCC 15499, 24 h, read-out: IZ
Aspergillus niger [3] = test: Antifungal activity against Aspergillus niger MTCC 1108 at 20 uM/ml after 48 hrs by paper disc diffusion method; assay type: functional
Aspergillus flavus [4] = test: Antifungal activity against Aspergillus flavus MTCC 1021 at 40 uM/ml after 48 hrs by paper disc diffusion method; assay type: functional
Curvularia lunata [5] = test: Antifungal activity against Curvularia lunata MTCC 581 at 160 uM/ml after 48 hrs by paper disc diffusion method; assay type: functional; settings: MTCC 581, 48 h, read-out: IZ
Aspergillus niger [6] = test: Antifungal activity against Aspergillus niger MTCC 1108 at 80 uM/ml after 48 hrs by paper disc diffusion method; assay type: functional; settings: MTCC 1108, 48 h, read-out: IZ
[7] = system: Burkholderia pseudomallei; test: Antibacterial activity against Burkholderia pseudomallei NTCC 10274 at 20 uM/ml after 24 hrs by kirby-bauer method; assay type: functional; settings: for zone of inhibition at 20 µM: NTCC 10274, 24 h, read-out: IZ
Escherichia coli [8] = test: Antibacterial activity against Escherichia coli ATCC 35218 at 160 uM/ml after 24 hrs by kirby-bauer method; assay type: functional; settings: ATCC 35218, 24 h, read-out: IZ
[9] = system: Burkholderia pseudomallei; test: Antibacterial activity against Burkholderia pseudomallei NTCC 10274 at 40 uM/ml after 24 hrs by kirby-bauer method; assay type: functional; settings: for zone of inhibition at 40 µM: NTCC 10274, 24 h, read-out: IZ
Aspergillus niger [10] = test: Antifungal activity against Aspergillus niger MTCC 1108 at 40 uM/ml after 48 hrs by paper disc diffusion method; assay type: functional
Trichoderma viride [11] = test: Antifungal activity against Trichoderma viride MTCC 1107 at 160 uM/ml after 48 hrs by paper disc diffusion method; assay type: functional; settings: MTCC 1107, 48 h, read-out: IZ
Aspergillus flavus [12] = test: Antifungal activity against Aspergillus flavus MTCC 1021 at 160 uM/ml after 48 hrs by paper disc diffusion method; assay type: functional
Curvularia lunata [13] = test: Antifungal activity against Curvularia lunata MTCC 581 at 40 uM/ml after 48 hrs by paper disc diffusion method; assay type: functional; settings: MTCC 581, 48 h, read-out: IZ
Escherichia coli [14] = test: Antibacterial activity against Escherichia coli ATCC 35218 at 40 uM/ml after 24 hrs by kirby-bauer method; assay type: functional; settings: for zone of inhibition at 40 µM: ATCC 35218, 24 h, read-out: IZ
Aspergillus niger [15] = test: Antifungal activity against Aspergillus niger MTCC 1108 at 160 uM/ml after 48 hrs by paper disc diffusion method; assay type: functional; settings: for zone of inhibition at 160 µM: MTCC 1108, 48 h, read-out: IZ
QG-56 = test: Cytotoxicity against human QG56 cells after 48 hrs by MTT assay; assay type: functional, cell-based
Curvularia lunata [16] = test: Antifungal activity against Curvularia lunata MTCC 581 at 80 uM/ml after 48 hrs by paper disc diffusion method; assay type: functional; settings: MTCC 581, 48 h, read-out: IZ
Aspergillus flavus [17] = test: Antifungal activity against Aspergillus flavus MTCC 1021 at 80 uM/ml after 48 hrs by paper disc diffusion method; assay type: functional
Trichoderma viride [18] = test: Antifungal activity against Trichoderma viride MTCC 1107 at 40 uM/ml after 48 hrs by paper disc diffusion method; assay type: functional; settings: MTCC 1107, 48 h, read-out: IZ
Trichoderma viride [19] = test: Antifungal activity against Trichoderma viride MTCC 1107 at 80 uM/ml after 48 hrs by paper disc diffusion method; assay type: functional; settings: MTCC 1107, 48 h, read-out: IZ
Staphylococcus aureus = test: Antibacterial activity against Staphylococcus aureus ATCC 11632 at 160 uM/ml after 24 hrs by kirby-bauer method; assay type: functional
[20] = system: Burkholderia pseudomallei; test: Antibacterial activity against Burkholderia pseudomallei NTCC 10274 at 160 uM/ml after 24 hrs by kirby-bauer method; assay type: functional; settings: NTCC 10274, 24 h, read-out: IZ
Escherichia coli [21] = test: Antibacterial activity against Escherichia coli ATCC 35218 at 20 uM/ml after 24 hrs by kirby-bauer method; assay type: functional
Salmonella typhimurium [22] = test: Antibacterial activity against Salmonella typhimurium ATCC 23564 at 160 uM/ml after 24 hrs by kirby-bauer method; assay type: functional; settings: for inhibition zone (IZ): Salmonella enterica subsp. enterica serovar Typhimurium; for zone of inhibition at 160 µM: Salmonella enterica, ATCC 23564, 24 h, read-out: IZ
Curvularia lunata [23] = test: Antifungal activity against Curvularia lunata MTCC 581 at 20 uM/ml after 48 hrs by paper disc diffusion method; assay type: functional; settings: MTCC 581, 48 h, read-out: IZ
Pseudomonas aeruginosa [24] = test: Antibacterial activity against Pseudomonas aeruginosa ATCC 15499 at 20 uM/ml after 24 hrs by kirby-bauer method; assay type: functional; settings: for zone of inhibition at 20 µM: ATCC 15499, 24 h, read-out: IZ
Pseudomonas aeruginosa [25] = test: Antibacterial activity against Pseudomonas aeruginosa ATCC 15499 at 160 uM/ml after 24 hrs by kirby-bauer method; assay type: functional; settings: for zone of inhibition at 160 µM: ATCC 15499, 24 h, read-out: IZ
Escherichia coli [26] = test: Antibacterial activity against Escherichia coli ATCC 35218 at 80 uM/ml after 24 hrs by kirby-bauer method; assay type: functional; settings: ATCC 35218, 24 h, read-out: IZ
[27] = system: Burkholderia pseudomallei; test: Antibacterial activity against Burkholderia pseudomallei NTCC 10274 at 80 uM/ml after 24 hrs by kirby-bauer method; assay type: functional; settings: NTCC 10274, 24 h, read-out: IZ
Aspergillus flavus [28] = test: Antifungal activity against Aspergillus flavus MTCC 1021 at 20 uM/ml after 48 hrs by paper disc diffusion method; assay type: functional
Trichoderma viride [29] = test: Antifungal activity against Trichoderma viride MTCC 1107 at 20 uM/ml after 48 hrs by paper disc diffusion method; assay type: functional; settings: MTCC 1107, 48 h, read-out: IZ
Salmonella typhimurium [30] = test: Antibacterial activity against Salmonella typhimurium ATCC 23564 at 80 uM/ml after 24 hrs by kirby-bauer method; assay type: functional, Salmonella enterica subsp. enterica serovar Typhimurium; settings: Salmonella enterica, ATCC 23564, 24 h; read-out: IZ
Salmonella typhimurium [31] = test: Antibacterial activity against Salmonella typhimurium ATCC 23564 at 20 uM/ml after 24 hrs by kirby-bauer method; assay type: functional, Salmonella enterica subsp. enterica serovar Typhimurium
Salmonella typhimurium [32] = test: Antibacterial activity against Salmonella typhimurium ATCC 23564 at 40 uM/ml after 24 hrs by kirby-bauer method; assay type: functional, Salmonella enterica subsp. enterica serovar Typhimurium
[33] = Salmonella enterica, ATCC 23564, 24 h, read-out: IZ
[34] = Salmonella enterica subsp. enterica serovar Typhimurium

Compound | inhibition zone (IZ) (Aspergillus niger [3]) | zone of inhibition at 160 µM (Curvularia lunata [5]) | zone of inhibition at 80 µM (Aspergillus niger [6]) | zone of inhibition at 20 µM [7] | zone of inhibition at 160 µM (Escherichia coli [8]) | zone of inhibition at 40 µM [9] | zone of inhibition at 160 µM (Trichoderma viride [11]) | zone of inhibition at 40 µM (Curvularia lunata [13]) | IC50 (HepG2) | IC50 (QG-56) | zone of inhibition at 80 µM (Curvularia lunata [16]) | zone of inhibition (Trichoderma viride [18]) | zone of inhibition at 80 µM (Trichoderma viride [19]) | inhibition zone (IZ) (Staphylococcus aureus) | zone of inhibition at 160 µM [20] | zone of inhibition at 20 µM (Curvularia lunata [23]) | zone of inhibition at 80 µM (Escherichia coli [26]) | zone of inhibition at 80 µM [27] | zone of inhibition at 20 µM (Trichoderma viride [29]) | IC50 (HCT-116) | further results
COc1ccc(C2NC(=S)NC(/C=C/c3ccc(O)c(OC)c3)=C2C(=O)/C=C/c2ccc(O)c(OC)c2)cc1 (stereo unspecified) | inactive | 24 mm | 9 mm | 16 mm | 18 mm | 19 mm | 23 mm | 18 mm | 100 uM/ml | 50 uM/ml | 21 mm | 18 mm | 19 mm | inactive | 24 mm | 16 mm | 14 mm | 21 mm | 17 mm | 50 uM/ml | zone of inhibition at 40 µM (Pseudomonas aeruginosa [1]): 19 mm; zone of inhibition at 80 µM (Pseudomonas aeruginosa [2]): 20 mm; inhibition zone (IZ) (Aspergillus flavus [4]): inactive; inhibition zone (IZ) (Aspergillus niger [10]): inactive; zone of inhibition at 160 µM (Aspergillus flavus [12]; MTCC 1021, 48 h, read-out: IZ): 9 mm; zone of inhibition at 40 µM (Escherichia coli [14]): 9 mm; zone of inhibition at 160 µM (Aspergillus niger [15]): 11 mm; inhibition zone (IZ) (Aspergillus flavus [17]): inactive; inhibition zone (IZ) (Escherichia coli [21]): inactive; inhibition zone (IZ) (Salmonella typhimurium [22]): inactive; zone of inhibition at 20 µM (Pseudomonas aeruginosa [24]): 18 mm; zone of inhibition at 160 µM (Pseudomonas aeruginosa [25]): 23 mm; inhibition zone (IZ) (Aspergillus flavus [28]): inactive
COc1ccc(C2NC(=O)NC(/C=C/c3ccc(O)c(OC)c3)=C2C(=O)/C=C/c2ccc(O)c(OC)c2)cc1 (stereo unspecified) | inactive | 17 mm | 9 mm | 11 mm | 12 mm | 15 mm | 19 mm | 14 mm | 50 uM/ml | 50 uM/ml | 16 mm | 16 mm | 17 mm | inactive | 23 mm | 11 mm | 9 mm | 19 mm | 14 mm | 100 uM/ml | zone of inhibition at 40 µM (Pseudomonas aeruginosa [1]): 19 mm; zone of inhibition at 80 µM (Pseudomonas aeruginosa [2]): 21 mm; inhibition zone (IZ) (Aspergillus niger [10]): inactive; inhibition zone (IZ) (Aspergillus flavus [12]): inactive; inhibition zone (IZ) (Escherichia coli [14]): inactive; zone of inhibition at 160 µM (Aspergillus niger [15]): 11 mm; inhibition zone (IZ) (Escherichia coli [21]): inactive; inhibition zone (IZ) (Salmonella typhimurium [22]): inactive; zone of inhibition at 20 µM (Pseudomonas aeruginosa [24]): 13 mm; zone of inhibition at 160 µM (Pseudomonas aeruginosa [25]): 23 mm
COc1cccc2c1C(=O)c1c(O)c3c(c(O)c1C2=O)C[C@@](O)(C(=O)CO)C[C@@H]3O[C@H]1C[C@H](N)[C@H](O)[C@H](C)O1 [DOXORUBICIN] |  |  |  |  |  |  |  |  | 2.5 uM/ml | 2.5 uM/ml |  |  |  |  |  |  |  |  |  | 5 uM/ml | 
COc1cc(/C=C/C(=O)C2=C(/C=C/c3ccc(O)c(OC)c3)NC(=O)NC2c2ccc(O)c(OC)c2)ccc1O (stereo unspecified) |  | 21 mm |  | 10 mm | 19 mm | 14 mm | 21 mm | 17 mm | 25 uM/ml | 50 uM/ml | 18 mm | 16 mm | 18 mm | inactive | 16 mm | 13 mm | 17 mm | 16 mm | 15 mm | 100 uM/ml | zone of inhibition at 80 µM (Salmonella typhimurium [30]): 19 mm; inhibition zone (IZ) (Aspergillus flavus [12]): inactive; zone of inhibition at 40 µM (Escherichia coli [14]): 14 mm; inhibition zone (IZ) (Aspergillus niger [15]): inactive; zone of inhibition at 20 µM (Salmonella typhimurium [31]; [33]): 13 mm; zone of inhibition at 20 µM (Escherichia coli [21]; ATCC 35218, 24 h, read-out: IZ): 11 mm; zone of inhibition at 160 µM (Salmonella typhimurium [22]): 22 mm; zone of inhibition at 40 µM (Salmonella typhimurium [32]; [33]): 16 mm; inhibition zone (IZ) (Pseudomonas aeruginosa [25]): inactive
COc1cc(/C=C/C(=O)C2=C(/C=C/c3ccc(O)c(OC)c3)NC(=O)NC2c2ccc(C)cc2)ccc1O (stereo unspecified) | inactive | 22 mm | 9 mm |  | 11 mm |  | 18 mm | 16 mm | 50 uM/ml | 100 uM/ml | 18 mm | 15 mm | 16 mm | inactive | 10 mm | 12 mm | 9 mm | 9 mm | 12 mm | 50 uM/ml | inhibition zone (IZ) (Pseudomonas aeruginosa [1]): inactive; inhibition zone (IZ) (Pseudomonas aeruginosa [2]): inactive; inhibition zone (IZ) [7]: inactive; zone of inhibition at 80 µM (Salmonella typhimurium [30]): 9 mm; inhibition zone (IZ) [9]: inactive; inhibition zone (IZ) (Aspergillus niger [10]): inactive; inhibition zone (IZ) (Aspergillus flavus [12]): inactive; inhibition zone (IZ) (Escherichia coli [14]): inactive; zone of inhibition at 160 µM (Aspergillus niger [15]): 12 mm; inhibition zone (IZ) (Salmonella typhimurium [31]; [34]): inactive; inhibition zone (IZ) (Escherichia coli [21]): inactive; zone of inhibition at 160 µM (Salmonella typhimurium [22]): 11 mm; inhibition zone (IZ) (Salmonella typhimurium [32]; [34]): inactive; inhibition zone (IZ) (Pseudomonas aeruginosa [24]): inactive; zone of inhibition at 160 µM (Pseudomonas aeruginosa [25]): 10 mm
